# According to PubChem BioAssay (NCI):
#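 Cultured in 96-well plates, cells were exposed to test compound for 48 hours across five concentrations. Abbreviation: GI50, concentration required for 50% inhibition of growth. TGI: concentration producing complete growth inhibition.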
# Legend:
# Assay in all cases: NCI anticancer screen, dose series, 48 h
# SF-295 CNS = tested on: SF-295 CNS
# PC-3 prostate = tested on: PC-3 prostate
# LOX IMVI melanoma = tested on: LOX IMVI melanoma
# M14 melanoma = tested on: M14 melanoma
# HS 578T breast = tested on: HS 578T breast
# HOP-62 NSCLC = tested on: HOP-62 NSCLC
# IGROV1 ovarian = tested on: IGROV1 ovarian
# SR leukemia = tested on: SR leukemia
# HL-60(TB) leukemia = tested on: HL-60(TB) leukemia
# U251 CNS = tested on: U251 CNS
# SK-MEL-2 melanoma = tested on: SK-MEL-2 melanoma
# SNB-19 CNS = tested on: SNB-19 CNS
# KM12 colon = tested on: KM12 colon
# MDA-MB-231 breast = tested on: MDA-MB-231 breast
# COLO 205 colon = tested on: COLO 205 colon
# SNB-75 CNS = tested on: SNB-75 CNS
# OVCAR-3 ovarian = tested on: OVCAR-3 ovarian
# SW-620 colon = tested on: SW-620 colon
# DU-145 prostate = tested on: DU-145 prostate
# MOLT-4 leukemia = tested on: MOLT-4 leukemia
# EKVX NSCLC = tested on: EKVX NSCLC
# ACHN renal = tested on: ACHN renal
# HCT-116 colon = tested on: HCT-116 colon
# CCRF-CEM leukemia = tested on: CCRF-CEM leukemia
# CAKI-1 renal = tested on: CAKI-1 renal
# A498 renal = tested on: A498 renal
# HOP-92 NSCLC = tested on: HOP-92 NSCLC
# NCI-H23 lung = tested on: NCI-H23 lung
# OVCAR-8 ovarian = tested on: OVCAR-8 ovarian
smiles,measurement,setting,value
S=C(Nc1ccccc1)c1ccccn1,GI50,SF-295 CNS,32.8 µM
same,TGI,SF-295 CNS,> 100 µM
same,GI50,PC-3 prostate,54.7 µM
same,TGI,PC-3 prostate,> 100 µM
same,GI50,LOX IMVI melanoma,28.2 µM
same,TGI,LOX IMVI melanoma,> 100 µM
same,GI50,M14 melanoma,28 µM
same,TGI,M14 melanoma,97.1 µM
same,GI50,HS 578T breast,> 100 µM
same,TGI,HS 578T breast,> 100 µM
same,GI50,HOP-62 NSCLC,81.9 µM
same,TGI,HOP-62 NSCLC,> 100 µM
same,GI50,IGROV1 ovarian,42.4 µM
same,TGI,IGROV1 ovarian,> 100 µM
same,GI50,SR leukemia,25.5 µM
same,TGI,SR leukemia,> 100 µM
same,GI50,HL-60(TB) leukemia,31.3 µM
same,TGI,HL-60(TB) leukemia,> 100 µM
same,GI50,U251 CNS,38 µM
same,TGI,U251 CNS,> 100 µM
same,GI50,SK-MEL-2 melanoma,> 100 µM
same,TGI,SK-MEL-2 melanoma,> 100 µM
same,GI50,SNB-19 CNS,> 100 µM
same,TGI,SNB-19 CNS,> 100 µM
same,GI50,KM12 colon,> 100 µM
same,TGI,KM12 colon,> 100 µM
same,GI50,MDA-MB-231 breast,51.2 µM
same,TGI,MDA-MB-231 breast,> 100 µM
same,GI50,COLO 205 colon,9.34 µM
same,TGI,COLO 205 colon,> 100 µM
same,GI50,SNB-75 CNS,54.5 µM
same,TGI,SNB-75 CNS,> 100 µM
same,GI50,OVCAR-3 ovarian,31.6 µM
same,TGI,OVCAR-3 ovarian,> 100 µM
same,GI50,SW-620 colon,59.4 µM
same,TGI,SW-620 colon,> 100 µM
same,GI50,DU-145 prostate,53 µM
same,TGI,DU-145 prostate,> 100 µM
same,GI50,MOLT-4 leukemia,42.1 µM
same,TGI,MOLT-4 leukemia,> 100 µM
same,GI50,EKVX NSCLC,42.9 µM
same,TGI,EKVX NSCLC,> 100 µM
same,GI50,ACHN renal,50.6 µM
same,TGI,ACHN renal,> 100 µM
same,GI50,HCT-116 colon,51.3 µM
same,TGI,HCT-116 colon,> 100 µM
same,GI50,CCRF-CEM leukemia,3.97 µM
same,TGI,CCRF-CEM leukemia,40.4 µM
same,GI50,CAKI-1 renal,40.3 µM
same,TGI,CAKI-1 renal,> 100 µM
same,GI50,A498 renal,> 100 µM
same,TGI,A498 renal,> 100 µM
same,GI50,HOP-92 NSCLC,54.3 µM
same,TGI,HOP-92 NSCLC,> 100 µM
same,GI50,NCI-H23 lung,75 µM
same,TGI,NCI-H23 lung,> 100 µM
same,GI50,OVCAR-8 ovarian,75.3 µM
same,TGI,OVCAR-8 ovarian,> 100 µM
